The text below walks through data of patent publication US8772480B2, “Inhibitors of PI3 kinase and/or mTOR” (priority 2009, dated 2014).

The target of test [1] is PI3Kα (Homo sapiens (Human), UniProt P42336). To be noted: read-out: PI3Kα AlphaScreen ® Ki.
Test [2] concerns phosphorylation of Akt at Serine 473 in U87 MG cells. Put plainly: cells. To be noted: Homo sapiens, U-87 MG, 2 h, read-out: U87Cell IC50, pAkt (Ser 473), U87 MG cells, two hours with compound.
Procedure: pAkt Aplhascreen (U87 Cell)
This assay was performed using U87 MG cells. […] The cells were maintained weekly using 0.05% Trypsin (Gibco) and replated in 150 mm TC—Treated Culture Dishes (Corning, Corning, N.Y.).
The first day of the assay, the adherent cells were trypsinized, media was added to the loose cells and cells were mixed to a homogenous mixture. 0.5 ml of the homogenous mixture was counted on the Beckman Coulter® Vi-CELL™ XR (Fullerton, Calif.). 50 frames of cells were counted and the number of viable cells was determined. The cells were then diluted to 0.25 million cells per ml, and centrifuged at 200 rcf for 5 minutes. The media was removed and the cells were reconstituted in fresh media for plating. The cells were plated at 20 μl per well on the PerkinElmer® FlexDrop PLUS in Low Volume 384 Well White Tissue Culture Plates (Corning) with a final cell density of 5K cells per well. The plates were incubated overnight at 37° Celsius, 5% CO2.
After two hours, the media in the cell plates was aspirated using the BioTek® ELx405HT plate washer (Winooski, Vt.) removing the majority of media and compound without disturbing the adherent U87 cells. […] The plates were then incubated at room temperature on a shaker for ten minutes. […] The AlphaScreen® reaction was added to the cell lysate at 6 μl per well using the PerkinElmer® FlexDrop PLUS. The plates were placed in a humid environment to reduce edge effects and incubated overnight at room temperature with restricted air flow in the dark.

Sequence of PI3Kα (P42336 whole entry): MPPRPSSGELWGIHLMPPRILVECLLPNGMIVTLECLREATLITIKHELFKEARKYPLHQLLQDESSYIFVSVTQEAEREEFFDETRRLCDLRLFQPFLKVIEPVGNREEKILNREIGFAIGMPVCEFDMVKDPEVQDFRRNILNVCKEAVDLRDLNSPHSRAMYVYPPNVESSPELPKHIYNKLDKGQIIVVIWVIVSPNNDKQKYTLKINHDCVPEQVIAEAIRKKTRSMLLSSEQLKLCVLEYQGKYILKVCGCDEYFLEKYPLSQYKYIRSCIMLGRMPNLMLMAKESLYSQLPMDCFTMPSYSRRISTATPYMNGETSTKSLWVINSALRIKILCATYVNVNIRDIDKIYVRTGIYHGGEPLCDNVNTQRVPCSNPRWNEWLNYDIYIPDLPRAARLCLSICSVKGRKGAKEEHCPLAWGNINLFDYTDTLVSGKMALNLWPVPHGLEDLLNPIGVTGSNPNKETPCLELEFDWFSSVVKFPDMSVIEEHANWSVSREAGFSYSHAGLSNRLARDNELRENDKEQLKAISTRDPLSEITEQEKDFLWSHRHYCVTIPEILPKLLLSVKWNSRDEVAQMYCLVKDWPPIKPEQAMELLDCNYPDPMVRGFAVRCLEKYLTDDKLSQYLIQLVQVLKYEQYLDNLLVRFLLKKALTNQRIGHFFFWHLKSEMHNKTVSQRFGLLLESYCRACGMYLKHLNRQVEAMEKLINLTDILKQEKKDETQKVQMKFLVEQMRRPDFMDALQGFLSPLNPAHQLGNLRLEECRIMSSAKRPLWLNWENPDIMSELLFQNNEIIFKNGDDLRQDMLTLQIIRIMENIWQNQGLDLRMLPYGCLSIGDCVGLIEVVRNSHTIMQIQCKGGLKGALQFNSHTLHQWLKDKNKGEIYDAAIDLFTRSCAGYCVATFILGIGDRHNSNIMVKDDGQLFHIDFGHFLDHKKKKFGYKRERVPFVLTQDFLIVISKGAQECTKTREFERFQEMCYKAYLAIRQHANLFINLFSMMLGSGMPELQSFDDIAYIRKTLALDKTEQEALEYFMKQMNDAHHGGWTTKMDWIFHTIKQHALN
Sequence of PI3Kα (P27986 whole entry partner): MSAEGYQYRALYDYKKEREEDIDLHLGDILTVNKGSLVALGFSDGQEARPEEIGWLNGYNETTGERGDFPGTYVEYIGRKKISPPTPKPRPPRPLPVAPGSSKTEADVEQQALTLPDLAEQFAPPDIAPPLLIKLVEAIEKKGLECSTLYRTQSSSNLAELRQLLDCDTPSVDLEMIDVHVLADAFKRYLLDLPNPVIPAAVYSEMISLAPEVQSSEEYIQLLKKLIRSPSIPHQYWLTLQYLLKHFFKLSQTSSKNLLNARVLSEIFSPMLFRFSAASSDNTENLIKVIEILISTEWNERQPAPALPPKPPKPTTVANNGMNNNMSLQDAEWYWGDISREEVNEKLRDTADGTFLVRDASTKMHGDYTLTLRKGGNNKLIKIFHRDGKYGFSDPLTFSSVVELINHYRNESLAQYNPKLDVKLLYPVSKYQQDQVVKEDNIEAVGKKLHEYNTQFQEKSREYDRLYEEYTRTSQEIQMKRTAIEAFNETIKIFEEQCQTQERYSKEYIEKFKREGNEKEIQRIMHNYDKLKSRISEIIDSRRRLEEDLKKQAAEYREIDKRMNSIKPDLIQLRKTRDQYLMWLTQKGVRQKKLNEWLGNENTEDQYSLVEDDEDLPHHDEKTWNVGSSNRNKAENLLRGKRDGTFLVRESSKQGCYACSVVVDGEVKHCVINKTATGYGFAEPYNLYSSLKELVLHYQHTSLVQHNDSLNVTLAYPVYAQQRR

As a reminder, the Ki is a dissociation constant, usually derived from enzyme kinetics or from competition with a known ligand. The IC50 is the concentration that gives 50% inhibition. Turning to `COc1ccc(Nc2ncc(C(C)N3CCN(S(C)(=O)=O)CC3)cc2-c2nc(C)nc3[nH]cnc23)cn1` (stereo not drawn) [Example 140, N-(6-methoxypyridin-3-yl)-3-(2-methyl-9H-purin-6-yl)-5-(1-(4-(methylsulfonyl)piperazin-1-yl)ethyl)pyridin-2-amine], the inhibitory constant (Ki) in test [1] worked out at 6 nM. In addition, in test [2], the IC50 was 34 nM.
In the same order, the values of `COc1ncc(Nc2ncc(Cc3ccc(S(C)(=O)=O)cc3)cc2-c2nc(C)nc(N)n2)cc1F` [Example 142, 4-(2-(5-fluoro-6-methoxypyridin-3-ylamino)-5-(4-(methylsulfonyl)benzyl)pyridin-3-yl)-6-methyl-1,3,5-triazin-2-amine] are 2 nM and 6 nM.
For `COc1ccc(Nc2ncc(C(C)N3CCN(S(C)(=O)=O)CC3)cc2-c2nc(C)nc(N)n2)cn1` (stereo not drawn) [Example 144, 4-(2-(6-Methoxypyridin-3-Ylamino)-5-(1-(4-(Methylsulfonyl)Piperazin-1-yl)Ethyl)Pyridin-3-yl)-6-Methyl-1,3,5-Triazin-2-Amine], in that order: 7 nM and 26 nM.
In the case of `COc1ccc(Nc2ncc([C@H](C)N3CCN(S(C)(=O)=O)CC3)cc2-c2nc(C)nc(N)n2)cn1` [Example 145, (S)-4-(2-(6-Methoxypyridin-3-Ylamino)-5-(1-(4-(Methylsulfonyl)Piperazin-1-yl)Ethyl)Pyridin-3-yl)-6-Methyl-1,3,5-Triazin-2-Amine], in test [1], the Ki was 8 nM. Also, in test [2], the half-maximal inhibitory concentration (IC50) was 8 nM.
Consider `COc1ccc(Nc2ncc([C@@H](C)N3CCN(S(C)(=O)=O)CC3)cc2-c2nc(C)nc(N)n2)cn1` [Example 146, (R)-4-(2-(6-Methoxypyridin-3-Ylamino)-5-(1-(4-(Methylsulfonyl)Piperazin-1-yl)Ethyl)Pyridin-3-yl)-6-Methyl-1,3,5-Triazin-2-Amine], for which the Ki in test [1] was 6 nM. Also, the IC50 in test [2] came to 7 nM.
For `COc1ccc(Nc2ncc(C(C)c3ccc(S(C)(=O)=O)cc3)cc2-c2nc(C)nc(N)n2)cn1` (stereo not drawn) [Example 149, 4-(2-(6-Methoxypyridin-3-Ylamino)-5-(1-(4-(Methylsulfonyl)Phenyl)Ethyl)Pyridin-3-yl)-6-Methyl-1,3,5-Triazin-2-Amine], in that order: 5 nM and 53 nM.
Regarding `COc1ncc(Nc2ncc(C(C)c3ccc(S(C)(=O)=O)cc3)cc2-c2nc(C)nc(N)n2)cc1F` (stereo not drawn) [Example 150, 4-(2-(5-Fluoro-6-Methoxypyridin-3-Ylamino)-5-(1-(4-(Methylsulfonyl)Phenyl)Ethyl)Pyridin-3-yl)-6-Methyl-1,3,5-Triazin-2-Amine], the Ki in test [1] is 1 nM. Besides, the IC50 in test [2] was determined as 11 nM.
In the same order, the values of `COc1ccc(Nc2ncc(C(=O)N3CCOCC3)cc2-c2nc(C)nc(N)n2)cn1` [Example 151, 4-(2-((6-Methoxy-3-Pyridinyl)Amino)-5-(4-Morpholinylcarbonyl)-3-Pyridinyl)-6-Methyl-1,3,5-Triazin-2-Amine] are 64 nM and 143 nM.
In the same order, the values of `COCCNC(=O)c1cnc(Nc2ccc(OC)nc2)c(-c2nc(C)nc(N)n2)c1` [Example 153, 5-(4-Amino-6-Methyl-1,3,5-Triazin-2-yl)-N-(2-Methoxyethyl)-6-((6-Methoxy-3-Pyridinyl)Amino)-3-Pyridinecarboxamide] are 21 nM and 110 nM.
For `COc1ccc(Nc2ncc(CN3CCOCC3=O)cc2-c2nc(C)nc(N)n2)cn1` [Example 154, 4-((5-(4-Amino-6-Methyl-1,3,5-Triazin-2-yl)-6-((6-Methoxy-3-Pyridinyl)Amino)-3-Pyridinyl)Methyl)-3-Morpholinone], in that order: 33 nM and 79 nM.
In the case of `COc1ccc(Nc2ncc(CN3CCN(S(C)(=O)=O)C[C@H]3C)cc2-c2nc(C)nc(N)n2)cn1` [Example 158, (R)-4-(2-(6-Methoxypyridin-3-Ylamino)-5-((2-Methyl-4-(Methylsulfonyl)Piperazin-1-yl)Methyl)Pyridin-3-yl)-6-Methyl-1,3,5-Triazin-2-Amine], the Ki in test [1] was determined as 7 nM. The IC50 in test [2] turned out to be 16 nM.
For `COc1ncc(Nc2ncc(CN3CCN(C(=O)N(C)C)CC3)cc2-c2nc(C)nc(N)n2)cc1F` [Example 159, 4-((5-(4-Amino-6-Methyl-1,3,5-Triazin-2-yl)-6-(5-Fluoro-6-Methoxypyridin-3-Ylamino)Pyridin-3-yl)Methyl)-N,N-Dimethylpiperazine-1-Carboxamide], in that order: 11 nM and 11 nM.
For `Cc1nc(N)nc(-c2cc(CN3CCN(C(=O)N(C)C)CC3)cnc2Nc2cnc(O)c(F)c2)n1` [Example 160, 4-((5-(4-Amino-6-Methyl-1,3,5-Triazin-2-yl)-6-(5-Fluoro-6-Hydroxypyridin-3-Ylamino)Pyridin-3-yl)Methyl)-N,N-Dimethylpiperazine-1-Carboxamide], in that order: 505 nM and 3170 nM.
Consider `Cc1nc(N)nc(-c2cc(CN3CCN(S(C)(=O)=O)CC3)cnc2Nc2cnc(O)c(F)c2)n1` [Example 161, 5-(3-(4-Amino-6-Methyl-1,3,5-Triazin-2-yl)-5-((4-(Methylsulfonyl)Piperazin-1-yl)Methyl)Pyridin-2-Ylamino)-3-Fluoropyridin-2-ol], for which, in test [1], the Ki stood at 36 nM. Also, the IC50 in test [2] was 73 nM.
Consider `CNc1nc(C)nc(-c2cc(CN3CCN(S(C)(=O)=O)CC3)cnc2Nc2ccc(OC)nc2)n1` [Example 163, 4-(2-(6-Methoxypyridin-3-Ylamino)-5-((4-(Methylsulfonyl)Piperazin-1-yl)Methyl)Pyridin-3-yl)-N,6-Dimethyl-1,3,5-Triazin-2-Amine], for which, in test [1], the Ki was found to be 7 nM. Besides, the IC50 in test [2] came out at 30 nM.
In the same order, the values of `Cc1nc(N)nc(-c2cccnc2Nc2cccc(OC(F)F)c2)n1` [Example 164, 4-(2-(3-(Difluoromethoxy)Phenylamino)Pyridin-3-yl)-6-Methyl-1,3,5-Triazin-2-Amine] are 963 nM and over 10000 nM.
In the same order, the values of `COc1ccc(Nc2ncccc2-c2nc(C)nc(N)n2)cc1F` [Example 166, 4-(2-(3-Fluoro-4-Methoxyphenylamino)Pyridin-3-yl)-6-Methyl-1,3,5-Triazin-2-Amine] are 177 nM and 902 nM.
For `Cc1nc(N)nc(-c2cccnc2Nc2ccc3c(c2)OC(F)(F)O3)n1` [Example 168, 4-(2-(2,2-Difluorobenzo[D][1,3]Dioxol-5-Ylamino)Pyridin-3-yl)-6-Methyl-1,3,5-Triazin-2-Amine], in that order: 610 nM and over 10000 nM.
Turning to `COc1ccc(Nc2ncc(-c3ccc(OC)nc3)cc2-c2nc(C)nc(N)n2)cn1` [Example 169, 5-(4-Amino-6-Methyl-1,3,5-Triazin-2-yl)-6′-Methoxy-N-(6-Methoxypyridin-3-yl)-3,3′-Bipyridin-6-Amine], the Ki in test [1] is 17 nM. In addition, the IC50 in test [2] was 105 nM.
For `COc1ccc(Nc2ncccc2-c2nc(C)nc(N)n2)cc1OC` [Example 170, 4-(2-(3,4-Dimethoxyphenylamino)Pyridin-3-yl)-6-Methyl-1,3,5-Triazin-2-Amine], in that order: 560 nM and 596 nM.
For `Cc1ccc2cc(Nc3ncccc3-c3nc(C)nc(N)n3)ccc2n1` [Example 171, N-(3-(4-Amino-6-Methyl-1,3,5-Triazin-2-yl)Pyridin-2-yl)-2-Methylquinolin-6-Amine], in that order: 611 nM and over 10000 nM.
